Results published in US20250352486A1, “NANOPARTICLES FOR USE IN THE TREATMENT OF INFECTIONS CAUSED BY BIOFILMS” (Universitat Politècnica De València, priority 2022, published 2025).

Legend:
Format in all cases: cell-based
[1] = test system: Candida albicans biofilms; experiment: Eradication of mature Candida albicans biofilms (xCELLigence); conditions: mature biofilms at 24 h; micafungin 1.5 μg/ml plus zymolyase 171 μg/ml, or 0.15% hydrogen peroxide
Method: Effect of platinum and mesoporous silica nanoparticles on the eradication of mature Candida albicans biofilms. C. albicans biofilms were cultured in the micro dilution plates of the xCELLigence system for 24 h and then treated with a combination of free micafungin together with zymolyase (an enzyme with the ability to disperse biofilm-forming cells), indicated in the legend as MZ, or with nanoparticles loaded with the antifungal micafungin and anchored with the enzyme zymolyase. […] The black curve represents the growth of the untreated biofilm and the black arrow indicates the time when the treatment was added.

[2] = test system: polymicrobial oral biofilms (dental plaque); experiment: Effect on preformed oral biofilms derived from saliva (xCELLigence); conditions: 16 μg/ml, two donors (A, B)
Method: FIG. 5.1. Effect of platinum and mesoporous silica nanoparticles loaded with metronidazole on preformed oral biofilms derived from saliva samples of two independent donors (A and B). The biofilms were grown in the xCELLigence system for 6 hours, and subsequently treated with metronidazole in suspension (concentration of 16 μg/ml) or with nanoparticles loaded with metronidazole (1 mg/ml of nanoparticles containing 2.25 μg metronidazole). The black arrows indicate the time when the treatment was added, whereas the black curves represent the untreated control. The biofilm comes from saliva samples and contains a complex microbial community made up of dozens of dental plaque-forming bacteria. To investigate the effect of platinum (Pt) and mesoporous silica nanoparticles on polymicrobial oral biofilms (dental plaque), biofilms derived from the saliva of two independent donors were cultured in the xCELLigence system for 6 hours, following the protocol described by Mira et al. 2019 (J Oral Microbiol). Subsequently, free metronidazole (at a concentration of 16 μg/ml), or nanoparticles with metronidazole (1 mg/ml of nanoparticles containing 2.25 μg of metronidazole) was added to evaluate the effect on said biofilms. […]

[3] = test system: endodontic biofilms from root canals; experiment: Disruption of endodontic biofilms (xCELLigence); conditions: 16 μg/ml in suspension, added after 6 h of growth
Method: FIG. 4.1. Disruption of endodontic biofilms using platinum and silica nanoparticles loaded with metronidazole. Endodontic biofilms were cultured in the xCELLigence system and after 6 hours of growth they were treated with 1 mg/ml of nanoparticles containing 2.25 μg of metronidazole, or with metronidazole in suspension at a concentration of 16 μg/ml, and compared to the untreated control (black curve). The black arrow indicates the time when the biofilm was treated. The biofilm comes from root canal samples extracted during a root canal and contains a complex microbial community formed by dozens of bacteria that cause this infection. Endodontic biofilms from root canals were collected with sterile files and placed in 1 ml of VMG (Ill) transport medium ([…] et al., 1993). Subsequently, the samples were transported to the laboratory where they were subjected to stirring for 3 minutes. Then, the files were extracted, the samples were centrifuged for 5 min at 10,000 rpm and the supernatant was discarded. The obtained pellet was resuspended with 1 ml of BHI (brain-heart infusion) culture medium and the samples were cultured in micro dilution plates of the xCELLigence impedance measurement system for 6 h, following the protocol described by Mira et al. 2019 (J Oral Microbiol). […]

Compound | effect on biofilm formation [1] | effect on salivary biofilm growth [2] | more biofilm formation compared to the untreated control [3]
OO [hydrogen peroxide] | induced the formation of biofilms | – | –
Cc1ncc([N+](=O)[O-])n1CCO [metronidazole] | – | induction of biofilm growth | up to 15%
